Assay results: publication PMC9738620, “Computer- and NMR-Aided Design of Small-Molecule Inhibitors of the Hub1 Protein” (Molecules, 2022)
Ends that are not written are not given here.

Columns and labels:
Hub1 [1] = molecular target: T1, Hub1 (Saccharomyces cerevisiae, UniProt Q6Q546); assay: biochemical
Method: Hub1 buffered in 20 mM HEPES, pH 7.5, 100 mM NaCl, 0.05% Tween-20 was labeled using His-Tag Labelling Kit RED-tris-NTA 2nd generation (MO-L018, NanoTemper, Munich, Germany), according to the manufacturer’s protocol. […] The final concentration of Hub1 was 50 nM. All measurements were calculated on a Monolith NT.115 instrument (NanoTemper, Munich, Germany) using the standard capillaries at the excitation power of 60% and the medium MST power in duplicates. The results were analyzed in GraphPad Prism software (GraphPad Prism version 8.0.0 for Windows, GraphPad Software, San Diego, CA, USA).

Hub1 [2] = molecular target: T1, Hub1
Method: The NMR measurements were carried out at 300 K on an ultrashielded 600 MHz Bruker AVANCE 3 (Bruker Corporation, Billerica, MA, USA) spectrometer equipped with a liquid nitrogen cryogenic system. Uniform ^15N isotope labeling was achieved by the expression of the protein in the M9 minimal media containing ^15NH4Cl as the sole nitrogen source. The NMR buffer for ^15N-labeled protein was PBS pH 7.4 with 5 mM DTT (dithiothreitol). To provide a lock signal, 10% (v/v) of D2O was added to the samples. Water suppression was carried out using the WATERGATE sequence. Stock solutions of the inhibitors used for titration were prepared in DMSO-d6. The binding of small molecule fragments towards Hub1 was measured with the 2D SOFAST-HMQC spectra of the ^15N-labeled Hub1 recombinant protein in 3-mm NMR capillaries. For the preliminary screening, the mixture of three compounds was added in a molar ratio compound to protein 1:10. Then the ^1H and SOFAST-HMQC spectrum was recorded and compared with the reference spectrum of the protein Hub1 titrated with a suitable amount of DMSO. When any activity occurred, all compounds which were in the mixture were tested one by one. The individual spectra were recorded in 10-fold excess of the inhibitor either by ^1H NMR or SOFAST-HMQC. […] The spectra were processed with TopSpin 3.2 software (Bruker Corporation, Billerica, MA, USA).

Snu66 peptide-14 = molecular target: T2, Snu66 peptide-14 (Saccharomyces cerevisiae); assay: MST
T2 chain: TNEIREKLGM

T1 sequence (Q6Q546 whole entry): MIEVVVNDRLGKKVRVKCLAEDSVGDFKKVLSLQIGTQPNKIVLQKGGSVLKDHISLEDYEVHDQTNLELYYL

TNEIREKLGM [Peptide-14]
Kd (Hub1 [1]): 14 ± 8.3 µM

IREKLGM [Peptide-11]
binding to Hub1 by MST (in words) (Hub1 [1]; MST, labeled Hub1 50 nM, peptide […] to 250 µM, pH 7.5, duplicates): no significant binding events | changes in chemical shifts (in words) (Hub1 [2]; 1H NMR, Hub1:peptide ratio 1:1 to 1:10, 300 K): changes in chemical shifts in the aliphatic (δ = 0.04 ppm) and aromatic (δ = 6.5 ppm) regions | chemical shift changes, aliphatic region (δ) (Hub1 [2]; 1H NMR, Hub1:peptide ratio 1:1 to 1:10, 300 K, aliphatic region): 0.04 ppm | buffer pH after titration (Hub1 [2]; after titration of Hub1 with peptide): 6.7

B1: Hub1 1-73 (protein)
chain: MIEVVCNDRLGKKVRVKCNTDDTIGDLKKLIAAQTGTRWNKIVLKKWYTIFKDHVSLGDYEIHDGMNLELYYQ
Kd (Snu66 peptide-14): 14 µM
